From ChEMBL document CHEMBL1145570, “Design and synthesis of 2-pyridones as novel inhibitors of the Bacillus anthracis enoyl-ACP reductase” (Bioorg Med Chem Lett, 2008)
≈ marks a conversion by molar mass, not a printed value.

Test system: Bacillus anthracis
Experiment: microbe, parasite or virus in culture
Format: functional
Settings: dANR

Compound	MIC [µg/mL]
COc1ccc(Cn2ccc(O)cc2=O)cc1	> 80
O=c1cc(O)ccn1Cc1ccccc1	> 80
CC(=O)Nc1ccc(Cn2ccc(OCc3ccccc3)cc2=O)c(Cl)c1	> 80
C#CCn1ccc(OCc2ccccc2)cc1=O	> 100
O=c1[nH]c(OCc2ccccc2)ccc1Cc1ccccc1	> 100
COc1ccc(Oc2ccccc2Cl)c(=O)[nH]1	> 100
[O-][n+]1cc(Cl)ccc1Oc1ccc(Cl)cc1Cl	> 100
O=c1cc(OCc2ccccc2)ccn1Cc1ccccc1Cl	16 (≈ 49.1 µM)
COc1ccc(Cn2ccc(OCCCn3c4ccccc4c4ccccc43)cc2=O)cc1	> 80
O=c1cc(OCc2cccc3ccccc23)ccn1Cc1ccccc1Cl	> 80
O=c1cc(OCCCn2c3ccccc3c3ccccc32)ccn1Cc1ccccc1	> 80
COc1ccc(Oc2ccc(Cl)cc2Cl)c(=O)[nH]1	> 100
Nc1ccc(Cn2ccc(OCc3ccccc3)cc2=O)c(Cl)c1	> 80
O=c1cc(OCc2ccccc2)ccn1Cc1ccc([N+](=O)[O-])cc1Cl	> 80
O=C(O)c1ccc(Cn2ccc(OCc3ccccc3)cc2=O)c(Cl)c1	> 80
NC(=O)c1ccc(Cn2ccc(OCc3ccccc3)cc2=O)c(Cl)c1	> 80
O=c1cc(OCc2ccc3ccccc3c2)ccn1Cc1ccccc1Cl	> 80
O=c1cc(OCCCn2nnc3ccccc32)ccn1Cc1ccccc1Cl	> 80
O=c1cc(OCCCn2ccnc2)ccn1Cc1ccccc1Cl	> 80
O=c1cc(OCCCn2ccc3ccccc32)ccn1Cc1ccccc1Cl	> 80
O=c1cc(O)ccn1Cc1ccc(O)cc1	> 80
O=c1cc(OCc2ccccc2)ccn1Cc1ccccc1	> 80
N#Cc1ccc(COc2ccn(Cc3ccccc3Cl)c(=O)c2)cc1	> 80
COc1ccc(Oc2ccccc2Cl)c[n+]1[O-]	> 100
CCOC(=O)c1cc(Cn2ccc(OCc3ccccc3)cc2=O)on1	> 100
N#Cc1ccc(Cn2ccc(OCc3ccccc3)cc2=O)c(Cl)c1	> 80
O=c1cc(OCCCn2c3ccccc3c3ccccc32)ccn1Cc1ccccc1Cl	> 80
Oc1cc(Cl)ccc1Oc1ccc(Cl)cc1Cl [TRICLOSAN]	3.1 (≈ 10.7 µM)
